Test results published in ChEMBL document CHEMBL6103589, “Synthesis and evaluation of novel ebselen derivatives as urease inhibitors for combating Helicobacter pylori infections” (Eur J Med Chem, 2025).
Active and inactive are the calls of the source. No cut-off for these calls is given here.

What was measured:
[1] = molecular target: Urease subunit alpha/Urease subunit beta (Helicobacter pylori (strain ATCC 700392 / 26695) (Campylobacterpylori), UniProt P69996); experiment: Inhibition of Helicobacter pylori ATCC 43504 urease preincubated for 75 mins followed by urea addition and measured after 30 mins by ELISA; type: protein-complex assay
Chain of Urease subunit alpha/Urease subunit beta (P69996 whole entry): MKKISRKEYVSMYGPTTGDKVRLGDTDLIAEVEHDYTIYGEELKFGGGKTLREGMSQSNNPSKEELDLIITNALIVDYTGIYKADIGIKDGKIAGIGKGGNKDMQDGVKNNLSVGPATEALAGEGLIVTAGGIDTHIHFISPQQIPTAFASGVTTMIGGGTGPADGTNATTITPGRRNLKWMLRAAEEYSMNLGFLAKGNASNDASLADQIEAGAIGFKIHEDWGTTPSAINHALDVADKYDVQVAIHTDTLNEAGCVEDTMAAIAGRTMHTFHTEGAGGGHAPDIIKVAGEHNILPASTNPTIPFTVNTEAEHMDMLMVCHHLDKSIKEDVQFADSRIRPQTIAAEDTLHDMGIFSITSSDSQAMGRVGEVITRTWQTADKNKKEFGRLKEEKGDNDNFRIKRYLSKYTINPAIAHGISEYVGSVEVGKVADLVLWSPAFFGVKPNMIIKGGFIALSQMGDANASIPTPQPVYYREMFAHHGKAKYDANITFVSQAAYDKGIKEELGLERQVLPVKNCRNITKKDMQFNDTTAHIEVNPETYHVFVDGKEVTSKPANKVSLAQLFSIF
Chain of Urease subunit alpha/Urease subunit beta (P14916 whole entry, further chain): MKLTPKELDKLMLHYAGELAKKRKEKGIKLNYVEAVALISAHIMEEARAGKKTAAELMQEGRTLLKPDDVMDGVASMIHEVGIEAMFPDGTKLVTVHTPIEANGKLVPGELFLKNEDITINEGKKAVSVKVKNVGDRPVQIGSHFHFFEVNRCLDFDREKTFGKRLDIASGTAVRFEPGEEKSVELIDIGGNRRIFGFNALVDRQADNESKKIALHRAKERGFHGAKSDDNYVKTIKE

[2] = test system: Helicobacter pylori; experiment: (§1) Protection against Helicobacter pylori ATCC 43504 infected (MOI 25:1) in human GES1 cell injury model assessed as early apoptotic cells at 25 uM pre-treated for 2 hrs followed by bacterial infection measured after 6 hrs by Annexin/V-FITC staining based flow cytometry analysis (reference value: 9.89%); type: functional; details: time 8 hrs
[3] = test system: Helicobacter pylori; experiment: Protection against Helicobacter pylori ATCC 43504 infected (MOI 50:1) in human GES1 cell injury model assessed as viable cells at 25 uM pre-treated for 2 hrs measured after 6 hrs by Annexin/V-FITC staining based flow cytometry analysis (reference value: 81.14%); type: functional; details: time 8 hrs
[4] = test system: Helicobacter pylori; experiment: Protection against Helicobacter pylori ATCC 43504 infected (MOI 50:1) in human GES1 cell injury model assessed as late apoptotic cells at 25 uM pre-treated for 2 hrs measured after 6 hrs by Annexin/V-FITC staining based flow cytometry analysis (reference value: 2.85%); type: functional; details: time 8 hrs
[5] = test system: Helicobacter pylori; experiment: (§2) Protection against Helicobacter pylori ATCC 43504 infected (MOI 50:1) in human GES1 cell injury model assessed as late apoptotic cells at 50 uM pre-treated for 2 hrs followed by bacterial infection measured after 6 hrs by Annexin/V-FITC staining based flow cytometry analysis (reference value: 2.85%); type: functional; details: time 8 hrs
[6] = test system: Helicobacter pylori; experiment: as §1, with “100:1)” for “25:1)”, “50” for “25”, “24.66 %)” for “9.89%)”; type: functional; details: time 8 hrs
[7] = test system: Helicobacter pylori; experiment: as §2, with “100:1)” for “50:1)”, “4.16%)” for “2.85%)”; type: functional; details: time 8 hrs
[8] = test system: Helicobacter pylori; experiment: Protection against Helicobacter pylori ATCC 43504 infected (MOI 200:1) in human GES1 cell injury model assessed as necrotic cells at 25 uM pre-treated for 2 hrs followed by bacterial infection measured after 6 hrs by Annexin/V-FITC staining based flow cytometry analysis (reference value: 3.92%); type: functional; details: time 8 hrs
[9] = test system: Helicobacter pylori; experiment: Protection against Helicobacter pylori ATCC 43504 infected (MOI 300:1) in human GES1 cell injury model assessed as viable cells at 25 uM pre-treated for 2 hrs followed by bacterial infection measured after 6 hrs by Annexin/V-FITC staining based flow cytometry analysis (reference value: 47.43%); type: functional; details: time 8 hrs
[10] = test system: Helicobacter pylori; experiment: as §1, with “300:1)” for “25:1)”, “34.57 %)” for “9.89%)”; type: functional; details: time 8 hrs
[11] = test system: Helicobacter pylori; experiment: as §1, with “300:1)” for “25:1)”, “50” for “25”, “34.57 %)” for “9.89%)”; type: functional; details: time 8 hrs
[12] = test system: Helicobacter pylori; experiment: as §1, with “400:1)” for “25:1)”, “late” for “early”, “13.62%)” for “9.89%)”; type: functional; details: time 8 hrs
[13] = test system: Helicobacter pylori; experiment: Protection against Helicobacter pylori ATCC 43504 infected (MOI 400:1) in human GES1 cell injury model assessed as necrotic cells at 25 uM pre-treated for 2 hrs followed by bacterial infection measured after 6 hrs by Annexin/V-FITC staining based flow cytometry analysis (reference value: 6.36%); type: functional; details: time 8 hrs
[14] = test system: Helicobacter pylori; experiment: as §2, with “400:1)” for “50:1)”, “13.62%)” for “2.85%)”; type: functional; details: time 8 hrs
[15] = test system: Helicobacter pylori; experiment: Protection against Helicobacter pylori ATCC 43504 infected (MOI 400:1) in human GES1 cell injury model assessed as necrotic cells at 50 uM pre-treated for 2 hrs followed by bacterial infection measured after 6 hrs by Annexin/V-FITC staining based flow cytometry analysis (reference value: 6.36%); type: functional; details: time 8 hrs
[16] = test system: GES1; experiment: Induction of ROS generation in human GES1 cells infected (25 to 400:1 MOI) with Helicobacter pylori ATCC 43504 assessed as increase in fluorescence intensity at 25 to 50 uM by DCFH-DA based Immunofluorescence analysis; type: functional, cell-based; details: dose 25-50 µM
[17] = test system: GES1; experiment: Induction of ROS generation in human GES1 cells infected (25 to 400:1 MOI) with Helicobacter pylori ATCC 43504 assessed as decrease in fluorescence intensity at 25 to 50 uM by DCFH-DA based Immunofluorescence analysis; type: functional, cell-based; details: dose 25-50 µM
[18] = Stability of the compound in simulated gastric fluid; type: physicochemical; details: simulated gi fluid
[19] = test system: Helicobacter pylori; experiment: In vivo protection against Helicobacter pylori ATCC 43504 infected in BALB/c mouse gastric mucosa model assessed as reduction in hyperplasia at 25 mg/kg administered once a day for 2 weeks by HE staining based analysis; type: functional, organism-based
[20] = test system: Helicobacter pylori; experiment: In vivo protection against Helicobacter pylori ATCC 43504 infected in BALB/c mouse gastric mucosa model assessed as appearance of intact lamina propria at high dose administered once a day for 2 weeks by HE staining based analysis; type: functional, organism-based
[21] = test system: Helicobacter pylori; experiment: In vivo protection against Helicobacter pylori ATCC 43504 infected in BALB/c mouse gastric mucosa model assessed as appearance of intact muscularis mucosa at high dose administered once a day for 2 weeks by HE staining based analysis; type: functional, organism-based
[22] = test system: Helicobacter pylori; experiment: In vivo protection against Helicobacter pylori ATCC 43504 infected in BALB/c mouse gastric mucosa model assessed as effect on bleeding at high dose administered once a day for 2 weeks by HE staining based analysis; type: functional, organism-based
[23] = test system: Helicobacter pylori; experiment: In vivo protection against Helicobacter pylori ATCC 43504 infected in BALB/c mouse gastric mucosa model assessed as effect on hyperplasia at high dose administered once a day for 2 weeks by HE staining based analysis; type: functional, organism-based
[24] = test system: Helicobacter pylori; experiment: In vivo protection against Helicobacter pylori ATCC 43504 infected in BALB/c mouse gastric mucosa model assessed as effect on pathological lesion at low dose administered once a day for 2 weeks by HE staining based analysis; type: functional, organism-based
[25] = Acute toxicity in BALB/c mouse assessed as pathological abnormality in spleen at 1 g/Kg, po single dose administered for 7 days by HE staining based analysis; type: organism-based; details: in vivo, 1000 mg/kg, 168 h, time 7 day
[26] = test system: GES1; experiment: Cytotoxicity against human GES1 cells at upto 75 uM by MTT assay; type: toxicity, cell-based; details: ges1, 75 µM

O=C(Oc1n[se]c2ccccc12)c1cccc(F)c1
IC50 [1]: 140 nM
Activity [2]: 1.51%
Activity [3]: 95.32%
Activity [4]: 0.05%
Activity [5]: 0.02%
Activity [6]: 2.79%
Activity [7]: 0.23%
Activity [8]: 0.12%
Activity [9]: 83.86%
Activity [10]: 15.81%
Activity [11]: 3.14%
Activity [12]: 0.32%
Activity [13]: 0.32%
Activity [14]: 0.72%
Activity [15]: 2.26%
Activity [16]: Active
Activity [17]: Active
Stability [18]: Stable
Activity [19]: Active
Activity [20]: Active
Activity [21]: Active
Activity [22]: inactive
Activity [23]: inactive
Activity [24]: inactive
Activity [25]: Non-toxic
Activity [26]: Non-toxic
